From US20250154145A1, “OXER1 ANTAGONISTS AND USES THEREOF” (Fairhaven Pharmaceuticals Ins., priority 2021, published 2025) come the findings set out here.

This assay deals with neutrophils. Briefly: Neutrophil calcium flux assay (5-OXO-ETE-stimulated, Indo-1 fluorescence). In kind it is cell-based. As to conditions: 5-OXO-ETE-stimulated calcium flux. As to the method:
After isolation, neutrophils were resuspended in PBS without calcium and Magnesium (PBS −/−) at a concentration of 5×10^6 cells/ml. 2ul of Indo-1 (1 mM) were added per ml of cells. After incubation at 37° C. for 30 minutes, cells were washed twice in PBS −/− and resuspended at 5×10^6 cells/ml in assay buffer (HBSS 1× with calcium and magnesium and […]). In a 96-well Black optical clear bottom plate 100 μL of neutrophil were dispensed to each well. After incubation at 37° C. for 5 minutes, 50 μL of assay buffer or 3× antagonist were added and incubated for 5 min in a Tecan Spark plate reader (Tecan, Morrisville, NC). Baseline was measured for 30 sec (wavelength setup: excitation: 331 nm and emission:410 nm). When baseline is stable, 50p of 5-OXO-ETE at 200 nM (4×) or HBSS was added to appropriate wells. Fluorescence was measured every 5 seconds for 30 cycles. Results are expressed as Net fluorescence (FLU minus Background and injection peak). All data were analyzed using GraphPad Prism version 9 for Windows (GraphPad, San Diego, CA).

pIC50: −log10 of the molar value.

`C[C@H](CC(=O)O)CC(=O)c1c(CCCCOCc2cccc(C#N)c2)n(C)c2cnccc12` [Compound I-394]: the pIC50 (Neutrophil) was above 7.00.

In the case of `CC(CC(=O)O)CC(=O)c1c(CCCCCC(O)c2ccc(Cl)cc2)n(C)c2ncc(C#N)cc12` (centres unmarked) [Compound I-310], for the setting “Neutrophil”, the negative logarithm of the IC50 (pIC50) was 6.52 to 7.00.

Regarding `CC(CC(=O)O)CC(=O)n1c(CCCCCCc2cccc(Cl)c2)cc2ncc(Cl)cc21` (centres unmarked) [Compound I-305], the pIC50 is above 7.00.

With `C[C@H](CC(=O)O)CC(=O)c1c(CCCCCCc2cccc(Cl)c2)[nH]c2ccc(Cl)cc12` [Compound I-144], under “Neutrophil”, the pIC50 was above 7.00.

Regarding `CC(CC(=O)O)CC(=O)c1c(CCCCCC(O)c2cccc(C(=O)N(C)C)c2)n(C)c2ncc(C#N)cc12` (single isomer, unassigned) [Compound I-318], the pIC50 was 6.52 to 7.00.

For `CC(CC(=O)O)CC(=O)n1c(CCCCCCc2cccc(Cl)c2)cc2ncc(Cl)cc21` (centres unmarked) [Compound I-468], the pIC50 is below 6.52.

Consider `Cn1c(CCCCOCc2cccc(Cl)c2)c(C(=O)N2CC[C@H](C(=O)O)C2)c2cc(C(F)(F)F)cnc21` [Compound I-183], for which the negative-log IC50 (pIC50) (Neutrophil) was below 6.52.

As to `C[C@H](CC(=O)O)CC(=O)c1c(CCCCOCc2cccc(C#N)c2)n(C)c2c(F)cc(Cl)cc12` [Compound I-415], for the setting “Neutrophil”, the pIC50 was below 6.52.

Regarding `C[C@H](CC(=O)O)CC(=O)c1c(CCCCC#Cc2ccccc2)n(C)c2ccc(Cl)cc12` [Compound I-117], under “Neutrophil”, the negative logarithm of the IC50 (pIC50) is above 7.00.

With `Cn1c(CCCCCCc2cccc(Cl)c2)c(CN2CC[C@H](C(=O)O)C2)c2cc(Cl)ccc21` [Compound I-303], under “Neutrophil”, the negative logarithm of the IC50 (pIC50) was below 6.52.

For the compound `C[C@H](CC(=O)O)CC(=O)c1c(CCCCOCC2(C(F)(F)F)CC2)n(C)c2ccc(Cl)cc12` [Compound I-74], the pIC50 (Neutrophil) was below 6.52.

For the compound `CC(CNC(=O)c1c(CCCCOCc2cccc(Cl)c2)n(C)c2ncc(C(N)=O)cc12)C(=O)O` (centres unmarked) [Compound I-287], the pIC50 (Neutrophil) is below 6.52.

With `COc1cccc(COCCCCc2c(C(=O)CC(C)CC(=O)O)c3cc(Cl)cnc3n2C)n1` (centres unmarked) [Compound I-447], the negative-log IC50 (pIC50) (Neutrophil) is below 6.52.

Take `C[C@H](CC(=O)O)CC(=O)c1c(CCCCCNc2cccc(Cl)c2)n(C)c2ccc(Cl)cc12` [Compound I-79]: for the setting “Neutrophil”, the pIC50 was above 7.00.

As to `C[C@H](CC(=O)c1c(CCCCOCc2ccccc2)n(C)c2ncc(C#N)cc12)Cc1nnn[nH]1` (stereo in doubt) [Compound I-360], the negative-log IC50 (pIC50) (Neutrophil) is below 6.52.

On to `C[C@@H](CC(=O)c1c(CCCCOCc2ccccc2)n(C)c2ncc(C#N)cc12)Cc1nnn[nH]1` [Compound I-359], for which the pIC50 (Neutrophil) is above 7.00.

For `COc1cccc(C(O)CCCCCc2c(C(=O)CC(C)CC(=O)O)c3cc(C#N)cnc3n2C)c1` (centres unmarked) [Compound I-302], where the note is “Neutrophil”, the pIC50 was above 7.00.

On to `CC(C)[C@H](NC(=O)C[C@@H](C)CC(=O)c1c(CCCCOCc2ccccc2)n(C)c2ncc(C#N)cc12)C(=O)O` [Compound I-466], for which the negative-log IC50 (pIC50) (Neutrophil) is below 6.52.

With `CC(CC(=O)O)CC(=O)c1c(CCCCCCC#CC2CC(F)(F)C2)n(C)c2ncc(C#N)cc12` (centres unmarked) [Compound I-322], the negative-log IC50 (pIC50) (Neutrophil) was above 7.00.

In the case of `C[C@H](CC(=O)O)CC(=O)c1c(CCCCCCc2cccnc2)n(C)c2ccc(Cl)cc12` [Compound I-53], the negative logarithm of the IC50 (pIC50) (Neutrophil) is above 7.00.

In the case of `Cn1c(CCCCCCC#CC2CC(F)(F)C2)c(C(=O)N2CC[C@](F)(C(=O)O)C2)c2cc(C#N)cnc21` [Compound I-344], where the note is “Neutrophil”, the pIC50 was below 6.52.

As to `CC(CNC(=O)c1c(CCCCOCc2cccc(Cl)c2)n(C)c2ncc(C#N)cc12)C(=O)O` (centres unmarked) [Compound I-242], the pIC50 (Neutrophil) is below 6.52.

`CC(CC(=O)O)CC(=O)c1c(CCCCCCC#CCC(F)(F)F)n(C)c2ccc(Cl)cc12` (centres unmarked) [Compound I-111]: the negative-log IC50 (pIC50) (Neutrophil) was 6.52 to 7.00.

For `Cn1c(CCCCCCc2cccc(Cl)c2)c(C(=O)N2CCC[C@@H]2CC(=O)O)c2cc(Cl)ccc21` [Compound I-119], the negative logarithm of the IC50 (pIC50) (Neutrophil) was below 6.52.

Take `Cn1c(CCCCCCc2cccc(Cl)c2)c(C(=O)N2CC[C@H](C(=O)NS(C)(=O)=O)C2)c2cc(C#N)cnc21` [Compound I-361]: the negative logarithm of the IC50 (pIC50) (Neutrophil) was below 6.52.

On to `C[C@H](CC(=O)O)CC(=O)c1c(CCCCCCc2cnccn2)n(C)c2ccc(Cl)cc12` [Compound I-81], for which the pIC50 (Neutrophil) is 6.52 to 7.00.

Turning to `C[C@@H](CC(=O)c1c(CCCCOCc2cccc(Cl)c2)n(C)c2ncc(Cl)cc12)Cc1nnn[nH]1` [Compound I-355], the pIC50 (Neutrophil) is above 7.00.

Turning to `C[C@H](CC(=O)O)CC(=O)c1c(CCOCCNc2cccc(F)c2)n(C)c2ncc(C#N)cc12` [Compound I-246], the negative-log IC50 (pIC50) (Neutrophil) is 6.52 to 7.00.

In the case of `C[C@H](CC(=O)O)CC(=O)c1c(CCCCO[C@H](C)c2ccccc2)n(C)c2ncc(C#N)cc12` [Compound I-434], where the note is “Neutrophil”, the pIC50 was above 7.00.

With `COc1cc(COCCCCc2c(C(=O)CC(C)CC(=O)O)c3cc(C#N)cnc3n2C)ccc1F` (centres unmarked) [Compound I-391], the pIC50 (Neutrophil) is above 7.00.

As to `Cn1c(CCCCCCC#CC2CC(F)(F)C2)c(C(=O)N2CC[C@H](c3nnn[nH]3)C2)c2cc(Cl)ccc21` [Compound I-353], the negative-log IC50 (pIC50) (Neutrophil) was above 7.00.

As for `Cn1c(CCCCCCC#CC2CC(F)(F)C2)c(C(=O)O)c2cc(Br)cnc21` [Compound I-348], the pIC50 (Neutrophil) was below 6.52.

With `C[C@H](CC(=O)O)CC(=O)c1c(CCCCCNC(=O)C2CC2)n(C)c2ccc(Cl)cc12` [Compound I-127], the pIC50 (Neutrophil) was below 6.52.

In the case of `CC(CC(=O)O)CC(=O)c1c(CCCCCCc2cscn2)n(C)c2ncc(C#N)cc12` (centres unmarked) [Compound I-373], where the note is “Neutrophil”, the pIC50 was 6.52 to 7.00.

Take `CC(CC(=O)O)CC(=O)c1c(CCCCOCc2cccc(OC(F)(F)F)c2)n(C)c2cnc(Cl)cc12` (centres unmarked) [Compound I-412]: under “Neutrophil”, the pIC50 was above 7.00.

For the compound `C[C@H](CC(=O)O)CC(=O)c1c(CCCCCNc2ccccn2)n(C)c2ccc(Cl)cc12` [Compound I-128], the pIC50 (Neutrophil) is below 6.52.

As to `C[C@H](CC(=O)NCC(=O)O)CC(=O)c1c(CCCCOCc2ccccc2)n(C)c2ncc(C#N)cc12` [Compound I-459], the negative-log IC50 (pIC50) (Neutrophil) was below 6.52.

On to `C[C@H](CC(=O)O)CC(=O)c1c(CCCCOCc2cccc(Cl)c2)n(C)c2cnc(Cl)cc12` [Compound I-410], for which the negative logarithm of the IC50 (pIC50) (Neutrophil) is above 7.00.

In the case of `C[C@H](CC(=O)O)CC(=O)c1c(CCCCCCCC#CC2CC(F)(F)C2)n(C)c2ccc(Cl)cc12` [Compound I-331], the pIC50 (Neutrophil) was above 7.00.

As to `Cn1c(CCCCCCc2cccc(Cl)c2)c(C(=O)N2CC[C@H](C(=O)O)C2)c2cc(Cl)ccc21` [Compound I-118], the negative-log IC50 (pIC50) (Neutrophil) was above 7.00.

In the case of `Cn1c(CCCCCCc2cccc(Cl)c2)c(C(=O)N2CCC(C)(C(=O)O)C2)c2cc(Cl)ccc21` (centres unmarked) [Compound I-157], the pIC50 (Neutrophil) is below 6.52.

Take `Cc1nc2c(cc1C#N)c(C(=O)CC(C)CC(=O)O)c(CCCCOCc1cccc(Cl)c1)n2C` (centres unmarked) [Compound I-381]: the pIC50 (Neutrophil) was below 6.52.

For the compound `C[C@H](CC(=O)O)CC(=O)c1c(CCCOCCC#CC2CC(F)(F)C2)n(C)c2ccc(Cl)cc12` [Compound I-325], the negative logarithm of the IC50 (pIC50) (Neutrophil) was above 7.00.

`C[C@H](CC(=O)O)CC(=O)c1c(CCCCC[C@H](O)c2cccc(Cl)c2)n(C)c2ncc(Cl)cc12` [Compound I-110]: under “Neutrophil”, the negative logarithm of the IC50 (pIC50) is above 7.00.

`Cn1c(CCCCCCc2cccc(Cl)c2)c(C(=O)N2CC[C@H](C(=O)O)C2)c2cc(C#N)cnc21` [Compound I-338]: the negative-log IC50 (pIC50) (Neutrophil) is above 7.00.

With `CC(CC(=O)O)CC(=O)c1c(CCCCOCc2cccc(C#N)c2)n(C)c2ncc(C(F)(F)F)cc12` (centres unmarked) [Compound I-417], the negative logarithm of the IC50 (pIC50) (Neutrophil) was 6.52 to 7.00.

As to `CC(CC(=O)O)CC(=O)c1c(CCCCOCc2cccc(F)c2)n(C)c2ncc(C#N)cc12` (centres unmarked) [Compound I-231], the negative logarithm of the IC50 (pIC50) (Neutrophil) is above 7.00.
